In patent publication EP2218441A1, “Methods for the prevention and/or treatment of age spots” (Rahn Ag, priority 2009, dated 2010):

Test system: human keratinocytes (NHKs)
Assay: Lipofuscin autofluorescence in human keratinocytes under H2O2 oxidative stress, normalized to total protein
Format: cell-based
Conditions: Keratinocyte, 48 h, 0.5 µg/ml oleuropein for 24 h before and 2 days after the stress, 1 mM H2O2 for 20 minutes, measured 2 days after oxidative stress, read-out: decrease of lipofuscin formation, as compared to untreated H2O2- exposed cells
Protocol: Because there is no specific lipofuscin antibody and its composition varies between different cell types, lipofuscin autofluorescence is the most widely used method for its detection and quantification. In order to evaluate the effect of oleuropein on lipofuscin formation in oxidatively stressed cells, lipofuscin accumulation was measured by autofluorescence, after induction of oxidative stress to human keratinocytes, treated or not with oleuropein.
After 24h incubation with oleuropein, the cells were treated with 1mM H2O2 for 20 minutes. After a recovery time of 2, 4 or 7 days, representative pictures of cells were taken and lipofuscin amount was quantified by autofluorescence measurement. […]
After 2, 4 and 7 days, respectively, representative pictures of the cells were taken, and lipofuscin autofluorescence was measured.
The total protein content was determined at each time-point for data normalization purposes. […]
The autofluorescence of lipofuscin was detected at wavenlengths of 570-605nm after an excitation at 366nm, using a fluorometer (Vistor2TM, PerkinElmer, Belgium).
For each condition tested, the quantity of autofluorescent lipofuscin was normalized to the amount of total proteins. […] The dosage of proteins was performed following the Bradford method, based on the detection of the absorbance of Coomassie Blue (Coomassie Protein Assay Kit, Pierce, USA). […]

C/C=C1/[C@H](O[C@@H]2O[C@H](CO)[C@@H](O)[C@H](O)[C@H]2O)OC=C(C(=O)OC)[C@H]1CC(=O)OCCc1ccc(O)c(O)c1 [oleuropein, Oleuropein]
inhibition at 0.5 µg/mL: 13%
